From US6803374B2, “Compounds useful for treating hepatitis C virus” (priority 2001, dated 2004)

Molecular target: T1, HCV NS5B RdRp genotype 1b (Hepatitis C virus genotype 1b, UniProt Q9WMX2)
T1 construct: The protein was expressed with an 18 amino acid C-terminal truncation to enhance the solubility; made in house; host or cells: E. coli BL21(DE3)
Experiment: HCV NS5B RdRp enzyme assay
Format: biochemical
Settings: IC50, HCV RdRp genotype 1b enzyme, C-terminal 18 aa truncated; average of single point IC50 values
Procedure: HCV NS5B RdRp cloning, expression and purification. The cDNA encoding the NS5B protein of HCV, genotype 1b, was cloned into the pET21a expression vector. The protein was expressed with an 18 amino acid C-terminal truncation to enhance the solubility. The E. coli competent cell line BL21(DE3) was used for expression of the protein. Cultures were grown at 37° C. for ˜4 hours until the cultures reached an optical density of 2.0 at 600 nm. The cultures were cooled to 20° C. and induced with 1 mM IPTG. Fresh ampicillin was added to a final concentration of 50 ug/ml and the cells were grown overnight at 20° C.
Cell pellets (3L) were lysed for purification to yield 15-24 mgs of purified NS5B. The lysis buffer consisted of 20 mM Tris-HCl, pH 7.4, 500 mM NaCl, 0.5% triton X-100, 1 mM DTT, 1 mM EDTA, 20% glycerol, 0.5 mg/ml lysozyme, 10 mM MgCl2, 15 ug/ml deoxyribonuclease I, and Complete TM protease inhibitor tablets (Roche). After addition of the lysis buffer, frozen cell pellets were resuspended using a tissue homogenizer. To reduce the viscosity of the sample, aliquots of the lysate were sonicated on ice using a microtip attached to a Branson sonicator. The sonicated lysate was centrifuged at 100,000×g for 1 hr at 4° C. and filtered through a 0.2 μm filter unit (Corning).
The protein was purified using three sequential chromatography steps: Heparin sepharose CL-6B, polyU sepharose 4B, and Hitrap SP sepharose (Pharmacia). The chromatography buffers were identical to the lysis buffer but contained no lysozyme, deoxyribonuclease I, MgCl2 or protease inhibitor and the NaCl concentration of the buffer was adjusted according to the requirements for charging the protein onto the column. Each column was eluted with a NaCl gradient which varied in length from 5-50 column volumes depending on the column type. After the final chromatography step, the resulting purity of the enzyme is >90% based on SDS-PAGE analysis. The enzyme was aliquoted and stored at −80° C.
HCV NS5B RdRp enzyme assay. HCV RdRp genotype 1b assays were run in assay buffer composed of 20 mM Tris-HCl, pH 7.5, 2.5 mM KCl, 5 mM MgCl2, 1 mM DTT, 1.6 U RNAse inhibitor (Promega N2515), in 96 well plates (Falcon 3918). All compounds were serially diluted in DMSO and diluted further in assay buffer such that the final concentration of DMSO in the assay was 2%. Compounds were serially diluted (3-fold each time) for a 7 point inhibition analysis. HCV RdRp genotype 1b enzyme was used at a final concentration of 28 nM. A polyA template was used at 28 nM, and the oligo-dT12-18 primer was used at 840 nM final concentration. Preannealed primer and template were obtained commercially (Amersham 27-787802). ^3H-UTP was used at 0.125 μCi (1 μM total UTP). Reaction was initiated by the addition of enzyme. Reactions were incubated at 30° C. for 45 min, and stopped by adding 30 ul of 20% ice cold TCA. Plates were chilled for 30 minutes and harvested onto Unifilter-96, GF/B plates (Packard, 6005177) using a Packard FilterMate Cell Harvester. The harvest plates were prewashed 3 times, 200 ul/well, with 100 mM NaPPi. Harvested filters were washed 30 times, 200 ul/well, with distilled water followed by ethanol. Filter plates were dried, and 30 ul/well microscint-20 was added. Plates were read on a Packard Top Count NXT.
The IC50 values for compounds were determined using […] different [I], combined with 7 nM enzyme, 800 ng of the template-primer polyC/oligoG12 (1:5 molar ratio), and 0.7 uM of ^3H GTP containing 1 uCi. The observed fractional activity (fa=vi/vo) was used in the equation IC50=[I]/(1/fa-1) to determine a single point IC50 value. Typically, the single point IC50 values derived from [I] that produced fractional activities in the range of 0.1 to 0.8 relative to the uninhibited control were averaged to calculate the IC50 value for each compound.

T1 sequence (Q9WMX2 2420-2992): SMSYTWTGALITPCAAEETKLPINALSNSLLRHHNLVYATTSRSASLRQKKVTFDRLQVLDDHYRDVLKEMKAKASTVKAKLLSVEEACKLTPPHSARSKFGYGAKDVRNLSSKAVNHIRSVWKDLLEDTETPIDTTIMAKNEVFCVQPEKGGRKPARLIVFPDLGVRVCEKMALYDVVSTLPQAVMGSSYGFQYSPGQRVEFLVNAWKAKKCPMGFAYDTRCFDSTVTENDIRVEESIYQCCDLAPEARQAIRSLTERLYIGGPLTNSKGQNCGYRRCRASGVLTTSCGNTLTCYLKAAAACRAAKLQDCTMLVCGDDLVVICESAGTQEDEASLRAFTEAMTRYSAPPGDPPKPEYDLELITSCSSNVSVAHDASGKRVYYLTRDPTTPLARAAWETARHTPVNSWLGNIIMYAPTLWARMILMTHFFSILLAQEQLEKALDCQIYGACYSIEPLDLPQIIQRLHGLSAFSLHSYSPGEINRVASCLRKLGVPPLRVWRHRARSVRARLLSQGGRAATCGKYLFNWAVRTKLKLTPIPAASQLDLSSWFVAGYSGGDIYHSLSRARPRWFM

Structure (SMILES)	IC50
c1ccc(C(Oc2ccc(-c3nc4cc(-c5nnn[nH]5)ccc4n3C3CCCCC3)cc2)c2ccccc2)cc1 [Example 1, 2-[4-(Diphenylmethoxy)phenyl]-1-cyclohexyl-5-(1H-tetrazol-5-yl)-1H-benzimidazole]	630 nM
COc1ccc(-c2ccc(Cl)cc2)c(COc2ccc(-c3nc4cc(-c5nnn[nH]5)ccc4n3C3CCCCC3)cc2)c1 [Example 3, 2-{4-[(4′-Chloro-4-methoxy-1,1′-biphenyl-2-yl)methoxy]phenyl}-1-cyclohexyl-5-(1H-tetrazol-5-yl)-1H-benzimidazole]	140 nM
O=C(O)c1ccc(-c2cncnc2)c(COc2ccc(-c3nc4cc(-c5nnn[nH]5)ccc4n3C3CCCCC3)cc2)c1 [Example 4, 3-[[4-[1-Cyclohexyl-5-(1H-tetrazol-5-yl)-1H-benzimidazol-2-yl]phenoxy]methyl]-4-(5-pyrimidinyl)benzoic acid]	630 nM
COc1ccccc1-c1nc(COc2ccc(-c3nc4cc(-c5nnn[nH]5)ccc4n3C3CCCCC3)cc2)no1 [Example 5, 1-Cyclohexyl-2-[4-[5-(2-methoxyphenyl)-1,2,4-oxadiazol-3-ylmethoxy]phenyl]-5-[1H-tetrazol-5-yl]-1H-benzimidazole]	360 nM
O=c1[nH]c(-c2ccc3c(c2)nc(-c2ccc(OCc4ccccc4)cc2)n3C2CCCCC2)no1 [Example 10, 3-{2-[4-(Benzyloxy)phenyl]-1-cyclohexyl-1H-benzimidazol-5-yl}-1,2,4-oxadiazol-5(4H)-one]	850 nM
COC(=O)c1ccc(C(=O)NS(=O)(=O)c2ccc3c(c2)nc(-c2ccc(OCc4ccccc4)cc2)n3C2CCCCC2)cc1 [Example 17, 4-[2-(4-Benzyloxyphenyl)-1-cyclohexyl-1H-benzoimidazole-5-sulfonylaminocarbonyl]-benzoic acid methyl ester]	5210 nM
O=C(O)c1ccc(C(=O)NS(=O)(=O)c2ccc3c(c2)nc(-c2ccc(OCc4ccccc4)cc2)n3C2CCCCC2)cc1 [Example 18, 4-[2-(4-Benzyloxyphenyl)-1-cyclohexyl-1H-benzimidazole-5-sulfonylaminocarbonyl]-benzoic acid]	1520 nM
O=C(O)CC(=O)NS(=O)(=O)c1ccc2c(c1)nc(-c1ccc(OCc3ccccc3)cc1)n2C1CCCCC1 [Example 20, 3-[2-(4-Benzyloxy-phenyl)-1-cyclohexyl-1H-benzoimidazole-5-sulfonylamino]-3-oxo-propionic acid]	8200 nM
O=C(O)C(=O)NS(=O)(=O)c1ccc2c(c1)nc(-c1ccc(OCc3ccccc3)cc1)n2C1CCCCC1 [Example 22, [2-(4-Benzyloxy-phenyl)-1-cyclohexyl-1H-benzoimidazole-5-sulfonylamino]-3-oxo-acetic acid]	8090 nM
O=C(O)c1ccc(-c2ccc(Cl)cc2)c(COc2ccc(-c3nc4cc(-c5nnn[nH]5)ccc4n3C3CCCCC3)cc2)c1 [Example 23]	20 nM
O=C(O)c1ccc(-c2ccc(F)cc2)c(COc2ccc(-c3nc4cc(-c5nnn[nH]5)ccc4n3C3CCCCC3)cc2)c1 [Example 24]	50 nM
COc1ccc(-c2ccc(C(=O)O)cc2COc2ccc(-c3nc4cc(-c5nnn[nH]5)ccc4n3C3CCCCC3)cc2)cc1 [Example 25]	40 nM
CSc1ccc(-c2ccc(C(=O)O)cc2COc2ccc(-c3nc4cc(-c5nnn[nH]5)ccc4n3C3CCCCC3)cc2)cc1 [Example 26]	190 nM
O=C(O)c1ccc(-c2cc(Cl)cc(Cl)c2)c(COc2ccc(-c3nc4cc(-c5nnn[nH]5)ccc4n3C3CCCCC3)cc2)c1 [Example 27]	1010 nM
O=C(O)c1ccc(-c2cccc3ccccc23)c(COc2ccc(-c3nc4cc(-c5nnn[nH]5)ccc4n3C3CCCCC3)cc2)c1 [Example 28]	620 nM
O=C(O)c1ccc(-c2ccccc2-c2ccccc2)c(COc2ccc(-c3nc4cc(-c5nnn[nH]5)ccc4n3C3CCCCC3)cc2)c1 [Example 29]	250 nM
O=C(O)c1ccc(-c2ccc(F)c(Cl)c2)c(COc2ccc(-c3nc4cc(-c5nnn[nH]5)ccc4n3C3CCCCC3)cc2)c1 [Example 30]	40 nM
O=C(O)c1ccc(-c2ccc(C(F)(F)F)cc2)c(COc2ccc(-c3nc4cc(-c5nnn[nH]5)ccc4n3C3CCCCC3)cc2)c1 [Example 31]	60 nM
CC(=O)Nc1cccc(-c2ccc(C(=O)O)cc2COc2ccc(-c3nc4cc(-c5nnn[nH]5)ccc4n3C3CCCCC3)cc2)c1 [Example 32]	40 nM

Structure (SMILES)	IC50
O=C(O)c1ccc(-c2cccc(O)c2)c(COc2ccc(-c3nc4cc(-c5nnn[nH]5)ccc4n3C3CCCCC3)cc2)c1 [Example 33]	40 nM
N#Cc1ccc(-c2ccc(C(=O)O)cc2COc2ccc(-c3nc4cc(-c5nnn[nH]5)ccc4n3C3CCCCC3)cc2)cc1 [Example 34]	40 nM
O=C(O)c1ccc(-c2ccccc2)c(COc2ccc(-c3nc4cc(-c5nnn[nH]5)ccc4n3C3CCCCC3)cc2)c1 [Example 35]	70 nM
O=Cc1ccccc1-c1ccc(C(=O)O)cc1COc1ccc(-c2nc3cc(-c4nnn[nH]4)ccc3n2C2CCCCC2)cc1 [Example 36]	830 nM
O=Cc1ccc(-c2ccc(C(=O)O)cc2COc2ccc(-c3nc4cc(-c5nnn[nH]5)ccc4n3C3CCCCC3)cc2)cc1 [Example 37]	70 nM
O=C(O)c1ccc(-c2ccc([N+](=O)[O-])cc2)c(COc2ccc(-c3nc4cc(-c5nnn[nH]5)ccc4n3C3CCCCC3)cc2)c1 [Example 41]	50 nM
O=C(O)c1ccc(-c2ccc(CO)cc2)c(COc2ccc(-c3nc4cc(-c5nnn[nH]5)ccc4n3C3CCCCC3)cc2)c1 [Example 42]	50 nM
Cc1ccc(-c2ccc(C(=O)O)cc2COc2ccc(-c3nc4cc(-c5nnn[nH]5)ccc4n3C3CCCCC3)cc2)cc1N [Example 43]	240 nM
COc1ccc(-c2ccc(C(=O)O)cc2COc2ccc(-c3nc4cc(-c5nnn[nH]5)ccc4n3C3CCCCC3)cc2)cc1OC [Example 44]	80 nM
CC(=O)c1ccc(-c2ccc(C(=O)O)cc2COc2ccc(-c3nc4cc(-c5nnn[nH]5)ccc4n3C3CCCCC3)cc2)cc1 [Example 45]	80 nM
O=C(O)c1ccc(-c2ccc(O)cc2)c(COc2ccc(-c3nc4cc(-c5nnn[nH]5)ccc4n3C3CCCCC3)cc2)c1 [Example 46]	60 nM
O=C(O)C=Cc1ccc(-c2ccc(C(=O)O)cc2COc2ccc(-c3nc4cc(-c5nnn[nH]5)ccc4n3C3CCCCC3)cc2)cc1 [Example 47]	50 nM
O=C(c1ccc(-c2ccc(Cl)cc2)c(COc2ccc(-c3nc4cc(-c5nnn[nH]5)ccc4n3C3CCCCC3)cc2)c1)N1CCC(O)CC1 [Example 48]	320 nM
CNC(=O)c1ccc(-c2ccc(C#N)cc2)c(COc2ccc(-c3nc4cc(-c5nnn[nH]5)ccc4n3C3CCCCC3)cc2)c1 [Example 49]	80 nM
CNC(=O)c1ccc(-c2ccc(Cl)cc2)c(COc2ccc(-c3nc4cc(-c5nnn[nH]5)ccc4n3C3CCCCC3)cc2)c1 [Example 50]	230 nM
CC(C)(C)OC(=O)C(Cc1ccc(OC(C)(C)C)cc1)NC(=O)c1cccc(COc2ccc(-c3nc4cc(-c5nnn[nH]5)ccc4n3C3CCCCC3)cc2)c1 (stereo not shown) [Example 51]	930 nM
CC(NC(=O)c1ccc(-c2cccc(O)c2)c(COc2ccc(-c3nc4cc(-c5nnn[nH]5)ccc4n3C3CCCCC3)cc2)c1)C(=O)O (stereo not shown) [Example 52]	470 nM
O=C(NC(Cc1ccc(O)cc1)C(=O)O)c1ccc(-c2cccc(O)c2)c(COc2ccc(-c3nc4cc(-c5nnn[nH]5)ccc4n3C3CCCCC3)cc2)c1 (stereo not shown) [Example 53]	570 nM
